Results from patent publication US20040110802A1, “Antibacterial benzoic acid derivatives” (priority 2002, published 2004).
Values after ≈ are worked out from the molar mass of the structure shown.

System: SAUR 9218
Experiment: MIC Test Method, standard agar dilution
Format: cell-based
Conditions: agar dilution, Mueller Hinton agar, incubated overnight at 35° C.; lowest concentration that inhibits visible growth; read-out: SAUR 9218 MIC
Experimental: The in vitro MiCs of test compounds were determined by a standard agar dilution method. A stock drug solution of each analog was prepared in the preferred solvent, usually DMSO:H2O (1:3). Serial 2-fold dilutions of each sample are made using 1.0 ml aliquots of sterile distil]ed water. To each 1.0 ml aliquot of drug was added 9 ml of molten Mueller Hinton agar medium. The drug-supplemented agar was mixed, poured into 15×100 mm petri dishes, and allowed to solidify and dry prior to inoculation.
Vials of each of the test organisms are maintained frozen in the vapor phase of a liquid nitrogen freezer. Test cultures are grown overnight at 35° C. on the medium appropriate for the organism. Colonies are harvested with a sterile swab, and cell suspensions are prepared in Trypticase Soy broth (TSB) to equal the turbidity of a 0.5 McFamland standard. A 1:20 dilution of each suspension was made in TSB. The plates containing the drug supplemented agar are inoculated with a 0.001 ml drop of the cell suspension using a Steers replicator, yielding approximately 10^4 to 10^5 cells per spot. The plates are incubated overnight at 35° C.
Following incubation the Minimum Inhibitory Concentration (MIC μg/ml), the lowest concentration of drug that inhibits visible growth of the organism, was read and recorded.

Row | Structure (SMILES) | MIC
1 | O=C(O)c1cc(Br)ccc1NC(=O)c1ccnc2ccccc12 | > 128 µg/mL
2 | CSc1ncccc1C(=O)Nc1ccc(Br)cc1C(=O)O | > 128 µg/mL
3 | O=C(Nc1ccc(Br)cc1C(=O)O)c1cnc2ccccc2n1 | 8 µg/mL (≈ 21.5 µM)
4 | CC1=C(C(=O)Nc2ccc(Br)cc2C(=O)O)Cc2ccccc21 | 8 µg/mL (≈ 21.5 µM)
5 | COc1cccc2cc(C(=O)Nc3ccc(Br)cc3C(=O)O)oc12 | 32 µg/mL (≈ 82 µM)
6 | Cc1cnc(C(=O)Nc2ccc(Br)cc2C(=O)O)cn1 | 128 µg/mL (≈ 381 µM)
7 | CC(C)CCSc1cnc(C(=O)Nc2ccc(C#N)cc2C(=O)O)cn1 | 0.125 µg/mL (≈ 0.337 µM)
8 | CC(C)CSc1cnc(C(=O)Nc2ccc(C#N)cc2C(=O)O)cn1 | 0.25 µg/mL (≈ 0.701 µM)
9 | COc1cnc(C(=O)Nc2ccc(C#N)cc2C(=O)O)cn1 | 8 µg/mL (≈ 26.8 µM)
10 | Cn1c(C(=O)Nc2ccc(C#N)cc2C(=O)O)cc2cccc(NC(=O)NCC(O)CO)c21 (centres unmarked) | 4 µg/mL (≈ 8.86 µM)
11 | CN(CC(O)C(O)C(O)C(O)CO)C(=O)Nc1cccc2cc(C(=O)Nc3ccc(C#N)cc3C(=O)O)n(C)c12 (centres unmarked) | 32 µg/mL (≈ 57.6 µM)
12 | Cn1c(C(=O)Nc2ccc(C#N)cc2C(=O)O)cc2cccc(OCC3COc4ccccc4O3)c21 (centres unmarked) | 0.125 µg/mL (≈ 0.259 µM)
13 | N#Cc1ccc(NC(=O)c2cc(CO)on2)c(C(=O)O)c1 | 8 µg/mL (≈ 27.9 µM)
14 | CCCCCCOc1cnc(C(=O)Nc2ccc(C#N)cc2C(=O)O)cn1 | 0.125 µg/mL (≈ 0.339 µM)
15 | CC(=O)Nc1ccc2onc(C(=O)Nc3ccc(C#N)cc3C(=O)O)c2c1 | 2 µg/mL (≈ 5.49 µM)
16 | CS(=O)(=O)Nc1ccc2onc(C(=O)Nc3ccc(C#N)cc3C(=O)O)c2c1 | 0.5 µg/mL (≈ 1.25 µM)
17 | CC1(C)OCC(CCc2cc(C(=O)Nc3ccc(Br)cc3C(=O)O)no2)O1 (centres unmarked) | 4 µg/mL (≈ 9.11 µM)
18 | Cn1c(C(=O)Nc2ccc(C#N)cc2C(=O)O)cc2cccc(OCC3CCC3)c21 | 0.125 µg/mL (≈ 0.31 µM)
19 | Cn1c(C(=O)Nc2ccc(C#N)cc2C(=O)O)cc2cccc(OCc3ccco3)c21 | 0.125 µg/mL (≈ 0.301 µM)
20 | Cn1c(C(=O)Nc2ccc(C#N)cc2C(=O)O)cc2cccc(O/C=C3/COC(C)(C)O3)c21 | 0.25 µg/mL (≈ 0.559 µM)
21 | Cn1c(C(=O)Nc2ccc(C#N)cc2C(=O)O)cc2cccc(OC[C@H](O)CO)c21 | 0.5 µg/mL (≈ 1.22 µM)
22 | Cn1c(C(=O)Nc2ccc(C#N)cc2C(=O)O)cc2cccc(OC3CCC3)c21 | 0.125 µg/mL (≈ 0.321 µM)
23 | COCC(C)Oc1cccc2cc(C(=O)Nc3ccc(C#N)cc3C(=O)O)n(C)c12 (centres unmarked) | 0.125 µg/mL (≈ 0.307 µM)
24 | CC(C)Oc1cccc2cc(C(=O)Nc3ccc(C#N)cc3C(=O)O)n(C)c12 | 0.125 µg/mL (≈ 0.331 µM)

Row | Structure (SMILES) | MIC
25 | N#Cc1ccc(NC(=O)c2noc3cc(Cl)ccc23)c(C(=O)O)c1 | 1 µg/mL (≈ 2.93 µM)
26 | O=C(O)c1cc(Br)ccc1NC(=O)c1noc2cc(Cl)ccc12 | 1 µg/mL (≈ 2.53 µM)
27 | CCC(C)Oc1ccc2cc(C(=O)Nc3ccc(C#N)cc3C(=O)O)n(C)c2c1 (centres unmarked) | 16 µg/mL (≈ 40.9 µM)
28 | CCCCOc1ccc2cc(C(=O)Nc3ccc(C#N)cc3C(=O)O)n(C)c2c1 | 16 µg/mL (≈ 40.9 µM)
29 | N#Cc1ccc(NC(=O)c2noc3ccc(NS(=O)(=O)c4ccc(F)cc4)cc23)c(C(=O)O)c1 | 0.125 µg/mL (≈ 0.26 µM)
30 | N#Cc1ccc(NC(=O)c2cnc(-c3ccccc3C(F)(F)F)cn2)c(C(=O)O)c1 | 32 µg/mL (≈ 77.6 µM)
31 | N#Cc1ccc(NC(=O)c2noc3ccc(N)cc23)c(C(=O)O)c1 | 0.5 µg/mL (≈ 1.55 µM)
32 | COc1ccc(CNc2cnc(C(=O)Nc3ccc(N)cc3C(=O)O)cn2)cc1 | 0.25 µg/mL (≈ 0.635 µM)
33 | N#Cc1ccc(NC(=O)c2cnc(-c3ccccc3F)cn2)c(C(=O)O)c1 | 4 µg/mL (≈ 11 µM)
34 | O=C(Nc1ccc(Br)cc1C(=O)O)c1cnc(/C=C/C2COC3(CCCCC3)O2)cn1 (centres unmarked) | 8 µg/mL (≈ 16.4 µM)
35 | N#Cc1ccc(NC(=O)c2noc3ccc(Br)cc23)c(C(=O)O)c1 | 0.125 µg/mL (≈ 0.324 µM)
36 | Cn1c(C(=O)Nc2ccc(C#N)cc2C(=O)O)cc2cccc(OCC3CCCCC3)c21 | 0.25 µg/mL (≈ 0.579 µM)
37 | Cn1c(C(=O)Nc2ccc(C#N)cc2C(=O)O)cc2cccc(OCC3CC3)c21 | 0.125 µg/mL (≈ 0.321 µM)
38 | Cn1c(C(=O)Nc2ccc(C#N)cc2C(=O)O)cc2cccc(OCC3CCCCO3)c21 (centres unmarked) | 0.5 µg/mL (≈ 1.15 µM)
39 | CCCCCOc1cccc2cc(C(=O)Nc3ccc(C#N)cc3C(=O)O)n(C)c12 | 0.125 µg/mL (≈ 0.308 µM)
40 | N#Cc1ccc(NC(=O)c2cc(CCl)on2)c(C(=O)O)c1 | 4 µg/mL (≈ 13.1 µM)
41 | N#Cc1ccc(NC(=O)c2cc(CN3CCOCC3)on2)c(C(=O)O)c1 | 16 µg/mL (≈ 44.9 µM)
42 | O=C(O)c1cc(Br)ccc1NC(=O)c1noc2ccc(Br)cc12 | 1 µg/mL (≈ 2.27 µM)
43 | COCc1onc(C(=O)Nc2ccc(C#N)cc2C(=O)O)c1COC | 16 µg/mL (≈ 46.3 µM)
44 | N#Cc1ccc(NC(=O)c2noc3ccc(-c4ccccc4C(F)(F)F)cc23)c(C(=O)O)c1 | 0.125 µg/mL (≈ 0.277 µM)
45 | Cc1ccccc1-c1cnc(C(=O)Nc2ccc(C#N)cc2C(=O)O)cn1 | 32 µg/mL (≈ 89.3 µM)
46 | COc1ccc(-c2cnc(C(=O)Nc3ccc(C#N)cc3C(=O)O)cn2)c(OC)c1OC | > 128 µg/mL
47 | COCCOc1cccc2cc(C(=O)Nc3ccc(C#N)cc3C(=O)O)n(C)c12 | 0.25 µg/mL (≈ 0.635 µM)

The remaining lines, values ahead:

Row | MIC | Structure (SMILES)
48 | 8 µg/mL (≈ 21.6 µM) | O=C(Nc1ccc(Br)cc1C(=O)O)c1ccc2ccccc2n1
49 | 0.125 µg/mL (≈ 0.267 µM) | Cn1c(C(=O)Nc2ccc(C#N)cc2C(=O)O)cc2cccc(NC(=O)NCc3ccccc3)c21
50 | 0.5 µg/mL (≈ 1.07 µM) | CCOCCOCCOc1ccccc1-c1cc(C(=O)Nc2ccc(C#N)cc2C(=O)O)no1
51 | 0.5 µg/mL (≈ 1.15 µM) | CCCCCCOc1ccccc1-c1cc(C(=O)Nc2ccc(C#N)cc2C(=O)O)no1
52 | 0.125 µg/mL (≈ 0.321 µM) | C=CCOc1ccccc1-c1cc(C(=O)Nc2ccc(C#N)cc2C(=O)O)no1
53 | 0.25 µg/mL (≈ 0.503 µM) | N#Cc1ccc(NC(=O)c2cc(-c3ccccc3OCC3COc4ccccc4O3)on2)c(C(=O)O)c1 (centres unmarked)
54 | 0.125 µg/mL (≈ 0.304 µM) | N#Cc1ccc(NC(=O)c2cc3cccc(OCc4ccccc4)c3[nH]2)c(C(=O)O)c1
55 | 0.125 µg/mL (≈ 0.266 µM) | Cn1c(C(=O)Nc2ccc(C#N)cc2C(=O)O)cc2cccc(OCCCOc3ccccc3)c21
56 | 1 µg/mL (≈ 2.35 µM) | N#Cc1ccc(NC(=O)c2noc3ccc(NC(=O)c4ccccc4)cc23)c(C(=O)O)c1
57 | 0.125 µg/mL (≈ 0.27 µM) | N#Cc1ccc(NC(=O)c2noc3ccc(NS(=O)(=O)c4ccccc4)cc23)c(C(=O)O)c1
58 | 0.125 µg/mL (≈ 0.331 µM) | CCOc1ccccc1-c1cc(C(=O)Nc2ccc(C#N)cc2C(=O)O)no1
59 | 2 µg/mL (≈ 4.47 µM) | N#Cc1ccc(NC(=O)c2cc(-c3ccccc3OCC3CCCCO3)on2)c(C(=O)O)c1 (centres unmarked)
60 | 0.5 µg/mL (≈ 1.03 µM) | N#Cc1ccc(NC(=O)c2cc(-c3ccccc3OCCCOc3ccccc3)on2)c(C(=O)O)c1
61 | 0.125 µg/mL (≈ 0.358 µM) | N#Cc1ccc(NC(=O)c2cc(-c3ccccc3O)on2)c(C(=O)O)c1
62 | 0.25 µg/mL (≈ 0.596 µM) | N#Cc1ccc(NC(=O)c2cc(-c3ccccc3OC3CCOC3)on2)c(C(=O)O)c1 (centres unmarked)
63 | 0.125 µg/mL (≈ 0.31 µM) | N#Cc1ccc(NC(=O)c2cc(-c3ccccc3OC3CCC3)on2)c(C(=O)O)c1
64 | 0.25 µg/mL (≈ 0.577 µM) | N#Cc1ccc(NC(=O)c2cc(-c3ccccc3OC3CCOCC3)on2)c(C(=O)O)c1
65 | 0.125 µg/mL (≈ 0.29 µM) | C[C@@H]1CCCC1Oc1ccccc1-c1cc(C(=O)Nc2ccc(C#N)cc2C(=O)O)no1 (some centres unmarked)

Row | MIC | Structure (SMILES)
66 | 0.25 µg/mL (≈ 0.593 µM) | COCC(C)Oc1ccccc1-c1cc(C(=O)Nc2ccc(C#N)cc2C(=O)O)no1 (centres unmarked)
67 | 0.125 µg/mL (≈ 0.298 µM) | CCCC(C)Oc1ccccc1-c1cc(C(=O)Nc2ccc(C#N)cc2C(=O)O)no1 (centres unmarked)
68 | 0.125 µg/mL (≈ 0.299 µM) | N#Cc1ccc(NC(=O)c2cc(-c3ccccc3OCC3CCC3)on2)c(C(=O)O)c1
69 | 0.125 µg/mL (≈ 0.294 µM) | Cn1c(C(=O)Nc2ccc(C#N)cc2C(=O)O)cc2cccc(OCc3ccccc3)c21
70 | 2 µg/mL (≈ 4.51 µM) | N#Cc1ccc(NC(=O)c2cc(-c3ccccc3OCC3C=CCCC3)on2)c(C(=O)O)c1 (centres unmarked)
71 | 128 µg/mL (≈ 232 µM) | N#Cc1ccc(NC(=O)COc2ccccc2-c2cc(C(=O)Nc3ccc(C#N)cc3C(=O)O)no2)c(C(=O)O)c1
72 | 4 µg/mL (≈ 9.54 µM) | CCC(CC)Oc1ccccc1-c1cc(C(=O)Nc2ccc(C#N)cc2C(=O)O)no1
73 | 128 µg/mL (≈ 270 µM) | Cc1ncsc1CCOc1ccccc1-c1cc(C(=O)Nc2ccc(C#N)cc2C(=O)O)no1
74 | 1 µg/mL (≈ 2.18 µM) | CC(Oc1ccccc1-c1cc(C(=O)Nc2ccc(C#N)cc2C(=O)O)no1)C1CCCCC1 (centres unmarked)
75 | 1 µg/mL (≈ 2.44 µM) | CCC(=O)COc1ccccc1-c1cc(C(=O)Nc2ccc(O)cc2C(=O)O)no1
76 | 0.5 µg/mL (≈ 1.09 µM) | O=C(COc1ccccc1-c1cc(C(=O)Nc2ccc(O)cc2C(=O)O)no1)c1ccccc1
77 | 0.125 µg/mL (≈ 0.31 µM) | O=C(Nc1ccc(O)cc1C(=O)O)c1cc(-c2ccccc2Br)on1
78 | 0.125 µg/mL (≈ 0.312 µM) | O=C(Nc1ccc(O)cc1C(=O)O)c1cc(-c2ccccc2-c2ccccc2)on1
79 | 0.25 µg/mL (≈ 0.706 µM) | COc1cccc(-c2cc(C(=O)Nc3ccc(O)cc3C(=O)O)no2)c1
80 | 1 µg/mL (≈ 2.1 µM) | N#Cc1ccc(NC(=O)c2noc3cc(NS(=O)(=O)Cc4ccccc4)ccc23)c(C(=O)O)c1
81 | 1 µg/mL (≈ 2.16 µM) | N#Cc1ccc(NC(=O)c2noc3cc(NS(=O)(=O)c4ccccc4)ccc23)c(C(=O)O)c1
82 | 0.125 µg/mL (≈ 0.326 µM) | N#Cc1ccc(NC(=O)c2noc3ccc(-c4ccccc4)cc23)c(C(=O)O)c1
83 | 0.125 µg/mL (≈ 0.275 µM) | N#Cc1ccc(NC(=O)c2cc(-c3ccccc3OCCCCCCl)on2)c(C(=O)O)c1
